Data published in ChEMBL document CHEMBL4706739, “Novel Heterobicyclic Carboxamides for Treating Eye Diseases” (ACS Med Chem Lett, 2021).

Biological target: Rho-associated protein kinase 2 (Homo sapiens, UniProt O75116)
Test: Inhibition of ROCK2 (unknown origin) using KRRRLSSLRA as substrate incubated for 75 mins in presence of ATP and DTT by Kinase-Glo luminescent assay

Sequence of Rho-associated protein kinase 2 (O75116 whole entry): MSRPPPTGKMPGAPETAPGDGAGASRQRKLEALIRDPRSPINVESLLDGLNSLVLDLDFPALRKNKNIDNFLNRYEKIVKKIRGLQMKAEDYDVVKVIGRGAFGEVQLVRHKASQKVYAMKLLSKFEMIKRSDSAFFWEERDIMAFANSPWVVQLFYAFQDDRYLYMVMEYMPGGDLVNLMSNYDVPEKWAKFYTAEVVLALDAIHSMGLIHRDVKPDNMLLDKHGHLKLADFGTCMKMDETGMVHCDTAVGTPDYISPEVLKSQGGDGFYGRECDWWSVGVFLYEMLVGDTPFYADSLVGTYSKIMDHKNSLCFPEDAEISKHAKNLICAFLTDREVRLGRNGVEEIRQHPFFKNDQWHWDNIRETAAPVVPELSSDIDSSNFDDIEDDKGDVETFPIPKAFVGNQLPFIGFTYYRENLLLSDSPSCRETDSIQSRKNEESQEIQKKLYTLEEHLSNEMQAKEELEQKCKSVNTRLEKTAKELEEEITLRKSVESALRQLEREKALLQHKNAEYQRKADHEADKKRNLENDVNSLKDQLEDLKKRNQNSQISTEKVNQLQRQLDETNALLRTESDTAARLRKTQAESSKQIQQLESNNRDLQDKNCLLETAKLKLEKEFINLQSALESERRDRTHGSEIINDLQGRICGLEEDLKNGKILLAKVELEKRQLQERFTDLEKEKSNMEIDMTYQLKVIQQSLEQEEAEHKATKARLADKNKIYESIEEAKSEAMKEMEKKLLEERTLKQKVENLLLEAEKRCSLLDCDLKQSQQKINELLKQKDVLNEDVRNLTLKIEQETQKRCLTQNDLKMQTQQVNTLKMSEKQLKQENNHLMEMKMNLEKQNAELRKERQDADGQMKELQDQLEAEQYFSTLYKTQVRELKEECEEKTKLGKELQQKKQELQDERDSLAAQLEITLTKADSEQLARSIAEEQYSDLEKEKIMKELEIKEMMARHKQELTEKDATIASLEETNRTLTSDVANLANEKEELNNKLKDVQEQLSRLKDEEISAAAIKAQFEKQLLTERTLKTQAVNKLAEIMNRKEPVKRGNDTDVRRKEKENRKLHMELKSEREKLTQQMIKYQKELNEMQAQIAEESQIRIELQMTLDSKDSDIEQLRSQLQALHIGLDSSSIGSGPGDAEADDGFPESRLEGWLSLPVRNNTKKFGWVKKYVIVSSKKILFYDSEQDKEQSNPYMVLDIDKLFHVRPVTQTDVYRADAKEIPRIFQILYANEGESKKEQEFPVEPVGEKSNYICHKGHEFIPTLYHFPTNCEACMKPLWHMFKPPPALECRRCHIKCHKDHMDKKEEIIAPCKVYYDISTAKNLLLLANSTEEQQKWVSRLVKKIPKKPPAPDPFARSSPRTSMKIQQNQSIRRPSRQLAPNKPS

Structure (SMILES)	IC50
O=C(Nc1nc2ccncc2s1)[C@@H]1C[C@H]1c1ccc(S(=O)(=O)Nc2ccccn2)cc1	6 nM
O=C(Nc1ccc2cnccc2n1)[C@@H]1C[C@H]1c1ccc(S(=O)(=O)Nc2ccccn2)cc1	6 nM
